This is an account of results in patent US20240317689A1, “POTASSIUM CHANNEL MODULATOR, COMPOSITION AND APPLICATION” (NEUSHEN THERAPEUTICS (SHANGHAI) CO., LTD, priority 2021, published 2024).

The structures appear in SMILES notation. Where only a bound is given, the exact number is not on record here.

One assay deals with T1, KCNQ2/3 potassium ion channel (Homo sapiens, UniProt O43525+O43526).
T1 construct: expressed in transfected cells; host or cells: CHO cells (hKCNQ-CHO)
In words: KCNQ2/3 potassium ion channel activation assay (whole-cell patch clamp, hKCNQ-CHO cells). The assay is classed as cell-based. As to conditions: test concentration 3 μM, numeric value. On the procedure: Example 64: KCNQ2/3 Potassium Ion Channel Activation Assay
hKCNQ-CHO cells were cultured at 37° C. in a humidified environment of 5% CO2.
• 2.1. Extracellular fluid (mM): NaCl 145, KCl 4, CaCl2 2, MgCl2 1, Glucose 10, HEPES 10. The pH value of the extracellular fluid was adjusted to 7.4 with NaOH, and the osmotic pressure was adjusted to about 295 mOsm. • 2.2. Intracellular fluid (mM (mmol/L)): KOH 31.25, KCl 120, EGTA 10, MgCl2 1.75, CaCl2 5.374, HEPES 10, Na-ATP 4. The pH value of the intracellular fluid was adjusted to 7.4 with HCl, and the osmotic pressure was adjusted to about 285 mOsm. • 2.3. The extracellular fluid should be prepared once a week, and the intracellular fluid should be stored at −20° C. after preparation.
The model positive reference compound Retigabine (RTG) was dissolved with 100% DMSO and configured as a 10 mM working solution. The test compounds were dissolved with 100% DMSO and configured as a 10 mM working solution. The final concentration of DMSO in the test solution should be less than 0.3%.
Whole-cell patch clamp was performed at room temperature. The electrical signals recorded with the EPC 10 USB amplifier (HEKA Elektronik, Germany) were filtered by a 3 kHz low-pass filter, and finally recorded in PatchMaster 2×90.5 software (HEKA Elektronik, Germany). At this step, the quality control standard was that the cell high-resistance sealing was greater than 500 MOhms, and the detection current was greater than 0.4 nA.
The recording electrodes were pulled out and polished with a vertical puller (NARISHIGE PC-10, Japan) using a borosilicate glass capillary (GC150tF-10, Harvard Apparatus Co., UK). At this step, the quality control standard was that the electrode resistance was between 2 MΩ and 5 MΩ.
During the recording process of the whole-cell patch clamp, a continuous perfusion system (BT100-2J, LongerPump, China) was used to continuously perfuse the extracellular fluid. The perfusion system was installed on the stage of an upright microscope (FN-S2N, Nikon, Japan), and the perfusion head was manually positioned under the microscope.
The voltage command for detecting the amplitude of hKCNQ current was as follows: the cell stepped from the clamping potential of −80 mV to −30 mV, and held for 1500 ms; and then the clamping voltage was lowered to −120 my and held for 500 ms; finally, the voltage returned to the clamping potential of −80 mV. The detection voltage command was repeated every 15,000 milliseconds, and the command was continuously executed during the compound test. The quality control standard for compound action stability was the current amplitude under 5 consecutive voltage commands, and the coefficient of variation of the current amplitude was <5%.
Data analysis was performed using PatchMaster 2×90.5 software (HEKA Elektronik, Germany) and Excel 2013 (Microsoft, USA) software. For each cell's patch clamp recording, the amplitude of the hKCNQ channel current (Itest) corresponding to the test compound concentration should be obtained. The enhanced channel current was obtained by subtracting the cell's original channel current (Icontrol) from Itest and dividing by Icontrol to obtain the current enhancement multiple. That is, the current enhancement multiple (Enhancment %)=(Itest −Icontrol)/Icontrol[…].
On the technique in general: The patch-clamp technique gives a direct electrical read-out from membranes.
Consider `Cc1cc(N2CCCc3cc(F)ccc3C2)cc(C)c1NC(=O)CC(C)(C)C` [a, reference compound], for which the “Enhancment % (activation activity on KCNQ2/3 potassium ion channel)” value came to 41.39%.

Still in this assay, the particulars now being: test concentration 3 μM, read-out: Enhancment % (current enhancement multiple).
Regarding `Cc1cc(N2CCCc3cc(OCCC(F)(F)F)ccc3C2)cc(C)c1NC(=O)CC(C)(C)C` [Compound 058, N-(2,6-dimethyl-4-(7-(3,3,3-trifluoropropoxy)-1,3,4,5-tetrahydro-2H-benzo[c]azepin-2-yl)phenyl)-3,3-dimethylbutanamide], the activation at 3 µM is more than 100%. Same read-out and setting: under `Cc1cc(N2CCCc3cc(OC4CCC(C(F)(F)F)CC4)ccc3C2)cc(C)c1NC(=O)CC(C)(C)C` (stereo not shown) [Compound 059, N-(2,6-dimethyl-4-(7-((4-(trifluoromethyl)cyclohexyl)oxy)-1,3,4,5-tetrahydro-2H-benzo[c]azepin-2-yl)phenyl)-3,3-dimethylbutanamide] stands more than 100%; under `Cc1cc(N2CCCc3cc(OCCCC(F)(F)F)ccc3C2)cc(C)c1NC(=O)CC(C)(C)C` [Compound 060, N-(2,6-dimethyl-4-(7-(4,4,4-trifluorobutoxy)-1,3,4,5-tetrahydro-2H-benzo[c]azepin-2-yl)phenyl)-3,3-dimethylbutanamide], more than 100%. Same read-out and setting: under `Cc1cc(N2CCCc3cc(OCCCC(F)(F)C(F)(F)F)ccc3C2)cc(C)c1NC(=O)CC(C)(C)C` [Compound 061, N-(2,6-dimethyl-4-(7-((4,4,5,5,5-pentafluoropentyl)oxy)-1,3,4,5-tetrahydro-2H-benzo[c]azepin-2-yl)phenyl)-3,3-dimethylbutanamide] stands more than 100%.

In the case of `Cc1cc(N2CCCc3cc(OCC(F)(F)CC(F)(F)F)ccc3C2)cc(C)c1NC(=O)CC(C)(C)C` [Compound 062, N-(2,6-dimethyl-4-(7-(2,2,4,4,4-pentafluorobutoxy)-1,3,4,5-tetrahydro-2H-benzo[c]azepin-2-yl)phenyl)-3,3-dimethylbutanamide], the activation at 3 µM was more than 100%.

In the case of `Cc1cc(N2CCCc3cc(OCCCCF)ccc3C2)cc(C)c1NC(=O)CC(C)(C)C` [Compound 063, N-(4-(7-(4-fluorobutoxy)-1,3,4,5-tetrahydro-2H-benzo[c]azepin-2-yl)-2,6-dimethylphenyl)-3,3-dimethylbutanamide], the activation at 3 µM is more than 100%.
